Target: T1, hOATP1B3 (Homo sapiens, UniProt Q9NPD5)
T1 sequence (Q9NPD5 1-702): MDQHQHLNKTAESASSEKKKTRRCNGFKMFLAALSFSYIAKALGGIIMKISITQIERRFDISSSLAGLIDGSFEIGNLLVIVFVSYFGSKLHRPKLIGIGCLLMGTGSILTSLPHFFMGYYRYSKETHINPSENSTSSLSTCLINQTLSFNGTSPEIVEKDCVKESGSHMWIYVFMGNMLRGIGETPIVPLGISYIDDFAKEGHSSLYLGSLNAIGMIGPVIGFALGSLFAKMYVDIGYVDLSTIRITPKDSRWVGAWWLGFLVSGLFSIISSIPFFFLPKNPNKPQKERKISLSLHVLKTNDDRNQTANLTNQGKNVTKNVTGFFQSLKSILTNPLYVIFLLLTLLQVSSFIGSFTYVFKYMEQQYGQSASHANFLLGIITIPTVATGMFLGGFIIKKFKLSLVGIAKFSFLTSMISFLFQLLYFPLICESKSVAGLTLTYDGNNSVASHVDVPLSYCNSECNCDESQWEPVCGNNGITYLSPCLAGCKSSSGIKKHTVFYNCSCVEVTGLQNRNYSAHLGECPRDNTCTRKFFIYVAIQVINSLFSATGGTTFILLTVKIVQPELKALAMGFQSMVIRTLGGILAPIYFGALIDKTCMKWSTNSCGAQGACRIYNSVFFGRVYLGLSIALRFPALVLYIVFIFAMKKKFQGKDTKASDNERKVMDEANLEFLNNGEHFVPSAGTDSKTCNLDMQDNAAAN
Assay: Substrates uptake assay, HEK293A-OATP1B3 cells (3H-EG)
Assay type: in vitro ADME
From the text: Drug transporters mediate the cellular uptake and efflux of their substrates. Therefore, cell lines overexpressing a drug transporter can be utilized to investigate inhibitors of the transporter by assessing changes in substrate uptake. For each drug transporter, we selected a well-characterized inhibitor as the positive control. Radiolabeled substrates were used to indicate the decrease in transport efficiency when the drug transporters were inhibited by PDQ or the control inhibitors.
The concentrations of the control drugs and the substrates were stated in the assay details. Working solutions of the control inhibitors, the radiolabeled substrates, and each dose of PDQ were prepared at 200 times (200×) more concentrated solutions with DMSO for further dilution.
Transporter-overexpressed cell lines. Human organic anion transporter-overexpressed cell lines MDCKII-OAT1 and S2-OAT3, human organic anion transport polypeptide-overexpressed cell lines HEK293A-OATP1B1 and HEK293A-OATP1B3, human organic cation transporter 2-overexpressed cell line S2-OCT2, and human multi-drug resistance protein MDR1 (or P-gp)-overexpressed cell line MDCKII-MDR1 were gifts from Japan Fuji Biomedical Co., Ltd. (Fuji, Shizuoka Prefecture, Japan). Breast cancer resistance protein-overexpressed vesicles (sf9-BCRP vesicle) were purchased from GenoMembrane Co., Ltd. (Yokohama, Kanagawa, Japan).
Substrates uptake assay. In this assay, we studied the inhibition of PDQ against transporters OAT1, OAT3, OCT2, OATP1B1 and OATP1B3 with MDCKII-OAT1, S2-OAT3, S2-OCT2, HEK293A-OATP1B1and HEK293A-OATP1B3 cells, respectively. The radiolabeled substrates for OAT1, OAT3, OATP1B1, OATP1B3 and OCT2 were […], respectively (Table 5). Probenecid ([…]) was the positive control inhibitor of OAT1 and OAT3, while rifampicin ([…]) served as the control drug of OATP1B1 and OATP1B3. For OCT2, we used […] cimetidine to compare with the inhibitory effect of PDQ. Two times (2×) more concentrated working solutions of the drugs and the substrate were prepared with Dulbecco’s phosphate-buffered saline (DPBS, Gibco, Grand Island, NY, USA.). Then, an equal volume of 2× drug solution and 2× radiolabeled substrate solution were mixed as the working mix. All reagents were pre-warmed to 37 °C.
The cells were digested with 0.05% trypsin/EDTA. The density of the single-cell suspension was adjusted to 2.0 × 10^5 cells/mL for S2 cells and to 1.5 × 10^5 cells/mL for MDCK II and HEK293A cells. The cell suspension was then added to the reservoirs of the 24-well plate for culture until full confluency. The medium in the wells was removed, and the wells were washed with DPBS. Then, the plate was incubated for 10 min with pre-warmed DPBS in the wells. After removing DPBS, […] of working mix was added to each well to initiate the substrate uptake process. The reaction time was 5 min for S2-OCT2 cells, while the other four types of cells were incubated with the reaction mix for 2 min. Cold DPBS was used to terminate the substrate transportation. To each well, […] NaOH ([…]) was added to lyse the cells. Then, […] cell lysate was transferred to the counting vials, and 3 mL scintillation cocktail (Aquasol-2, PerkinElmer, Waltham, MA, USA) was added. […] Each sample was replicated three times (N = 3).
In = [100 × (U − U0)/(Uc − U0)]%(3)
The results were expressed as mean ± standard deviation (SD) and analyzed with GraphPad Prism 8.0 software (CA, USA). The IC50 of PDQ was curve-fitted with the FORECAST function. Statistical significance was calculated using a two-tailed test, and a p value < 0.05 was considered as significant.

CC(C)(O)[C@@H]1CC[C@@](C)([C@H]2CC[C@]3(C)[C@@H]2[C@H](O)C[C@@H]2[C@@]4(C)CC[C@H](O)C(C)(C)[C@@H]4CC[C@]23C)O1 [PDQ, (20S,24S)-dammar-20,24-epoxy-3β, 12β, 25-triol]
IC50 (HEK293A-OATP1B3, 3H-EG 1 µM, 2 min): > 30 µM | DPM (3H-EG uptake by OATP1B3) (inhibitor 0.1 μM): 3332.7±245.2 DPM | DPM (3H-EG uptake by OATP1B3) (inhibitor 0.3 μM): 3200.3±323.1 DPM | DPM (3H-EG uptake by OATP1B3) (inhibitor 1 μM): 3093.3±182.0 DPM | DPM (3H-EG uptake by OATP1B3) (inhibitor 3 μM): 2980.7±186.5 DPM | DPM (3H-EG uptake by OATP1B3) (inhibitor 10 μM): 2985.0±250.2 DPM | DPM (3H-EG uptake by OATP1B3) (inhibitor 30 μM): 2649.0±200.2 DPM

— paper PMC11173382, “In Vitro Investigations into the Potential Drug Interactions of Pseudoginsenoside DQ Mediated by Cytochrome P450 and Human Drug Transporters” (Molecules, 2024)
